A short description of data set [1]: Drug uptake in Danish Landrace pig hippocampus at 124 MBq, iv after 90 mins by PET analysis. The data set is classed as ADME, organism-based, Sus scrofa. As to conditions: in vivo, 1.5 h; call rule not given here.
Data set [2] is described as follows: Drug uptake in Danish Landrace pig cerebellum at 124 MBq, iv after 90 mins by PET analysis. The data set is classed as ADME, organism-based, Sus scrofa. As to conditions: in vivo, 1.5 h.
Data set [3] can be described thus: Drug uptake in Danish Landrace pig thalamus at 124 MBq, iv after 90 mins by PET analysis. The note with it: in vivo, 1.5 h. The class given is ADME, organism-based, Sus scrofa.
Data set [4] can be described thus: Plasma protein binding in pig plasma at 5 MBq after 2.5 hrs by equilibrium dialysis chamber method. The data set is classed as ADME, cell-free, Sus scrofa. As to conditions: read-out: PPB (converted). Background: In equilibrium dialysis free small molecules cross a membrane that holds back macromolecules.
A short description of data set [5]: Drug uptake in Danish Landrace pig cortex at 124 MBq, iv after 90 mins by PET analysis. The class given is ADME, organism-based, Sus scrofa. The note with it: in vivo, 1.5 h.
A short description of data set [6]: Drug uptake in Danish Landrace pig striatum at 124 MBq, iv after 90 mins by PET analysis. The class given is ADME, organism-based, Sus scrofa. As to conditions: in vivo, 1.5 h.
Data set [7] can be described thus: Drug uptake in Danish Landrace pig brain at 124 MBq, iv after 60 mins by PET analysis. As to conditions: in vivo, 1 h. The data set is classed as ADME, organism-based, Sus scrofa.

For `Cc1ccc(Sc2ccccc2N2CCNCC2)c([11CH3])c1`, the Drug uptake result in data set [1], in data set [2], in data set [3], in data set [5], in data set [6] and in data set [7] was “Active” in each case. In addition, in data set [4], the fraction unbound at 2.5 h, 5 MBq is 0.02.

Values taken from ChEMBL document CHEMBL3259526, “(11)C-labeling and preliminary evaluation of vortioxetine as a PET radioligand” (Bioorg Med Chem Lett, 2014).
